Assay results as given in patent US6737383B1, “Herbicidal oxadiazolidines” (priority 1999, dated 2004).

How the values were obtained:
sugar beet = test: Test B pre/postemergence sugar beet; type: in vivo, Beta vulgaris
How it was run: (§1)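 Response is a visual 0-to-10 score relative to untreated plants, where 0 means no effect and 10 means complete control, taken twelve to sixteen days after application. Treatments went onto soil at planting and onto foliage of 1- to 4-leaf plants, using a surfactant-containing non-phytotoxic solvent.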

bedstraw = test: Test B pre/postemergence bedstraw; type: in vivo, Galium aparine; details: for Bedstraw plant response rating: Postemergence; for Plant response rating, Bedstraw: Preemergence
How it was run: as §1

velvetleaf = test: Test B pre/postemergence velvetleaf; type: in vivo, Abutilon theophrasti
How it was run: as §1

smallflower flatsedge = test: Test B flood test smallflower flatsedge; type: in vivo, Cyperus difformis
How it was run: (§2)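 Flood test on plants grown to the 2-leaf stage; treated plants kept in greenhouse twelve to sixteen days, then visually rated against controls on a 0 (no effect) to 10 (complete control) scale.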

cocklebur = test: Test B pre/postemergence cocklebur; type: in vivo, Xanthium strumarium
How it was run: as §1

bamyardgrass = test: Test B flood test barnyardgrass; type: in vivo, Echinochloa crus-galli
How it was run: as §2

rice = test: Test B flood test rice; type: in vivo, Oryza sativa
How it was run: as §2

giant foxtail = test: Test B pre/postemergence giant foxtail; type: in vivo, Setaria faberii
How it was run: as §1

soybean = test: Test B pre/postemergence soybean; type: in vivo, Glycine max
How it was run: as §1

crabgrass = test: Test B pre/postemergence crabgrass; type: in vivo, Digitaria sanguinalis
How it was run: as §1

wild oat = test: Test B pre/postemergence wild oat; type: in vivo, Avena fatua
How it was run: as §1

pigweed = test: Test B pre/postemergence pigweed; type: in vivo, Amaranthus retroflexus
How it was run: as §1

corn = test: Test B pre/postemergence corn; type: in vivo, Zea mays
How it was run: as §1

surinam grass = test: Test B pre/postemergence surinam grass; type: in vivo, Brachiaria decumbens
How it was run: as §1

purple nutsedge = test: Test B pre/postemergence purple nutsedge; type: in vivo, Cyperus rotundus
How it was run: as §1

blackgrass = test: Test B pre/postemergence blackgrass; type: in vivo, Alopecurus myosuroides
How it was run: as §1

[1] = Postemergence, Rate 62 g/ha, scale 0 to 10, 0 is no effect, 10 is complete control
[2] = Postemergence, Rate 250 g/ha, scale 0 to 10, 0 no effect, 10 complete control
[3] = Preemergence, Rate 62 g/ha, scale 0 to 10, 0 is no effect, 10 is complete control
[4] = Preemergence, Rate 125 g/ha, scale 0 to 10 (0 no effect, 10 complete control)
[5] = Preemergence, Rate 250 g/ha, scale of 0 to 10 where 0 is no effect and 10 is complete control
[6] = Preemergence, Rate 500 g/ha, scale 0 (no effect) to 10 (complete control)
[7] = Rate 125 g/ha, Postemergence, scale 0 to 10, 0 no effect, 10 complete control
[8] = Rate 62 g/ha, scale 0 to 10, 0 is no effect, 10 is complete control
[9] = Rate 125 g/ha, Postemergence section (flood test species), scale 0 to 10, 0 no effect, 10 complete control
[10] = flood test, listed under Postemergence, Rate 250 g/ha, scale 0 to 10, 0 no effect, 10 complete control
[11] = Rate 500 g/ha, Postemergence, 0 to 10 scale (0 no effect, 10 complete control)
[12] = Rate 500 g/ha, Postemergence section of Table B, 0 to 10 scale (0 no effect, 10 complete control)

Cc1c(Cl)cccc1-n1c(=O)on(C(=O)N(c2ccc(F)cc2)C(C)C)c1=O [Compound 21]
Sugarbeets plant response rating (sugar beet; [1]): 0 | Sugarbeets plant response rating (sugar beet; [2]): 0 | Plant response rating, Sugarbeets (sugar beet; [3]): 0 | Plant response rating, Sugarbeets (sugar beet; [4]): 0 | Plant response rating, Sugarbeets (sugar beet; [5]): 3 | Sugarbeets plant response rating (sugar beet; [6]): 8 | Sugarbeets plant response rating (sugar beet; [7]): 0 | Bedstraw plant response rating (bedstraw; [8]): 0 | Bedstraw plant response rating (bedstraw; Rate 250 g/ha, scale 0 to 10, 0 no effect, 10 complete control): 0 | Plant response rating, Bedstraw (bedstraw; [8]): 0 | Plant response rating, Bedstraw (bedstraw; Rate 125 g/ha, scale 0 to 10 (0 no effect, 10 complete control)): 0 | Plant response rating, Bedstraw (bedstraw; Rate 250 g/ha, scale of 0 to 10 where 0 is no effect and 10 is complete control): 0 | Bedstraw plant response rating (bedstraw; Rate 125 g/ha, scale 0 to 10, 0 no effect, 10 complete control): 0 | Bedstraw plant response rating (bedstraw; Rate 500 g/ha, 0 to 10 scale (0 no effect, 10 complete control)): 6 | Velvetleaf plant response rating (velvetleaf; [1]): 0 | Velvetleaf plant response rating (velvetleaf; [2]): 0 | Plant response rating, Velvetleaf (velvetleaf; [3]): 0 | Plant response rating, Velvetleaf (velvetleaf; [4]): 0 | Plant response rating, Velvetleaf (velvetleaf; [5]): 0 | Velvetleaf plant response rating (velvetleaf; [6]): 0 | Velvetleaf plant response rating (velvetleaf; [7]): 0 | S. Flatsedge plant response rating (smallflower flatsedge; [1]): 0 | S. Flatsedge plant response rating (smallflower flatsedge; [9]): 0 | S. Flatsedge plant response rating (smallflower flatsedge; [10]): 0 | Cocklebur plant response rating (cocklebur; [1]): 0 | Cocklebur plant response rating (cocklebur; [2]): 5 | Plant response rating, Cocklebur (cocklebur; [3]): 0 | Plant response rating, Cocklebur (cocklebur; [4]): 0 | Plant response rating, Cocklebur (cocklebur; [5]): 0 | Cocklebur plant response rating (cocklebur; [6]): 0 | Cocklebur plant response rating (cocklebur; [7]): 0 | Cocklebur plant response rating (cocklebur; [11]): 7 | Barnyardgrass plant response rating (bamyardgrass; [1]): 0 | Barnyardgrass plant response rating (bamyardgrass; [9]): 0 | Barnyardgrass plant response rating (bamyardgrass; [12]): 0 | Barnyardgrass plant response rating (bamyardgrass; [10]): 0 | Rice plant response rating (rice; [1]): 0 | Rice plant response rating (rice; [9]): 0 | Rice plant response rating (rice; [12]): 0 | Rice plant response rating (rice; [10]): 0 | Giant foxtail plant response rating (giant foxtail; [1]): 0 | Giant foxtail plant response rating (giant foxtail; [2]): 0 | Plant response rating, Giant foxtail (giant foxtail; [3]): 8 | Plant response rating, Giant foxtail (giant foxtail; [4]): 8 | Plant response rating, Giant foxtail (giant foxtail; [5]): 8 | Giant foxtail plant response rating (giant foxtail; [6]): 9 | Giant foxtail plant response rating (giant foxtail; [7]): 0 | Giant foxtail plant response rating (giant foxtail; [11]): 2 | Soybean plant response rating (soybean; [1]): 2 | Soybean plant response rating (soybean; [2]): 2 | Plant response rating, Soybean (soybean; [3]): 0 | Plant response rating, Soybean (soybean; [4]): 0 | Plant response rating, Soybean (soybean; [5]): 0 | Soybean plant response rating (soybean; [6]): 0 | Soybean plant response rating (soybean; [7]): 2 | Crabgrass plant response rating (crabgrass; [1]): 0 | Crabgrass plant response rating (crabgrass; [2]): 0 | Plant response rating, Crabgrass (crabgrass; [3]): 4 | Plant response rating, Crabgrass (crabgrass; [4]): 7 | Plant response rating, Crabgrass (crabgrass; [5]): 7 | Crabgrass plant response rating (crabgrass; [6]): 7 | Crabgrass plant response rating (crabgrass; [7]): 0 | Crabgrass plant response rating (crabgrass; [11]): 2 | Wild oats plant response rating (wild oat; [1]): 0 | Wild oats plant response rating (wild oat; [2]): 0 | Plant response rating, Wild oats (wild oat; [4]): 0 | Plant response rating, Wild oats (wild oat; [5]): 0 | Wild oats plant response rating (wild oat; [6]): 0 | Wild oats plant response rating (wild oat; [7]): 0 | Redroot pigweed plant response rating (pigweed; [1]): 0 | Redroot pigweed plant response rating (pigweed; [2]): 0 | Plant response rating, Redroot pigweed (pigweed; [3]): 6 | Plant response rating, Redroot pigweed (pigweed; [4]): 6 | Plant response rating, Redroot pigweed (pigweed; [5]): 6 | Redroot pigweed plant response rating (pigweed; [6]): 8 | Redroot pigweed plant response rating (pigweed; [7]): 0 | Redroot pigweed plant response rating (pigweed; [11]): 0 | Corn plant response rating (corn; [1]): 0 | Corn plant response rating (corn; [2]): 0 | Plant response rating, Corn (corn; [3]): 0 | Plant response rating, Corn (corn; [4]): 0 | Plant response rating, Corn (corn; [5]): 0 | Corn plant response rating (corn; [6]): 0 | Corn plant response rating (corn; [7]): 0 | Corn plant response rating (corn; [11]): 3 | B. signalgrass plant response rating (surinam grass; [1]): 0 | B. signalgrass plant response rating (surinam grass; [2]): 0 | Plant response rating, B. signalgrass (surinam grass; [3]): 0 | Plant response rating, B. signalgrass (surinam grass; [4]): 0 | Plant response rating, B. signalgrass (surinam grass; [5]): 0 | B. signalgrass plant response rating (surinam grass; [6]): 0 | B. signalgrass plant response rating (surinam grass; [7]): 0 | B. signalgrass plant response rating (surinam grass; [11]): 0 | Nutsedge plant response rating (purple nutsedge; [1]): 0 | Nutsedge plant response rating (purple nutsedge; [2]): 0 | Plant response rating, Nutsedge (purple nutsedge; [3]): 0 | Plant response rating, Nutsedge (purple nutsedge; [4]): 0 | Plant response rating, Nutsedge (purple nutsedge; [5]): 0 | Nutsedge plant response rating (purple nutsedge; [6]): 0 | Nutsedge plant response rating (purple nutsedge; [7]): 0 | Nutsedge plant response rating (purple nutsedge; [11]): 0 | Blackgrass plant response rating (blackgrass; [1]): 0 | Blackgrass plant response rating (blackgrass; [2]): 0 | Plant response rating, Blackgrass (blackgrass; [3]): 0 | Plant response rating, Blackgrass (blackgrass; [4]): 0 | Plant response rating, Blackgrass (blackgrass; [5]): 0 | Blackgrass plant response rating (blackgrass; [6]): 0 | Blackgrass plant response rating (blackgrass; [7]): 0 | Blackgrass plant response rating (blackgrass; [11]): 0
